Paper PMC7894603 (Science translational medicine, 2020)

System: Kras and Trp53 mutant (KP) lung adenocarcinoma mouse model
Type: in vivo
Conditions: IT, urine 60-120 min; for change of KP/control reporter difference over 5, 7.5 and 10.5 weeks: MeanNormPARKP/MeanNormPARControl

Sequence	change of KP/control reporter difference over 5, 7.5 and 10.5 weeks	urinary reporter in KP versus healthy mice (10.5 weeks after tumor initiation, mean-normalized PAR)
GGLGPKGQTGC [PP07]	amplified over time	
GGSGSKIIGGGC [PP11]	amplified over time	most significantly enriched reporter
